Experimental data: PubChem BioAssay (NCI)
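Interpolation was linear, between the two tested concentrations surrounding the appropriate level; five concentrations were tested over 48 hours in 96-well plates. Abbreviation: GI50, concentration required for 50% inhibition of growth. TGI marks complete inhibition of growth.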

Legend:
Test in all cases: NCI anticancer screen, dose series, 48 h
[1] = tested on: HOP-62 NSCLC
[2] = tested on: K-562 leukemia
[3] = tested on: KM12 colon
[4] = tested on: MALME-3M melanoma
[5] = tested on: RPMI-8226 leukemia
[6] = tested on: SF-295 CNS
[7] = tested on: SK-MEL-28 melanoma
[8] = tested on: U251 CNS
[9] = tested on: UACC-62 melanoma
[10] = tested on: RXF 393 renal

Row | SMILES | TGI [1] | TGI [2] | TGI [3] | TGI [4] | TGI [5] | TGI [6] | TGI [7] | TGI [8] | TGI [9] | GI50 [2] | GI50 [5] | TGI [10] | GI50 [1] | GI50 [3] | GI50 [4] | GI50 [10] | GI50 [6] | GI50 [7] | GI50 [8] | GI50 [9]
1 | O=C1CSC(C(N=Nc2ccc(Cl)cc2)c2nc3ccccc3[nH]2)=N1 (stereo not drawn) | > 100 µM | > 100 µM | > 100 µM | > 100 µM | > 100 µM | > 100 µM | 92.2 µM | > 100 µM | > 100 µM |  |  |  |  |  |  |  |  |  |  | 
2 | CCc1c(C)c2ccc(OCC(=O)N=Nc3c(O)[nH]c4ccccc34)c(C)c2oc1=O |  | > 33.3 µM |  |  | 2.27 µM |  |  |  | > 33.3 µM | 1.19 µM | 0.936 µM |  |  |  |  |  |  |  |  | 
3 | Cc1c(N=NN(C)C)cc[n+]([O-])c1C | > 100 µM | > 100 µM | > 100 µM | > 100 µM | > 100 µM | > 100 µM | > 100 µM | > 100 µM | > 100 µM |  |  | > 100 µM |  |  |  |  |  |  |  | 
4 | CC(C)[C@](O)(C(=O)OCC1=CCN2CC[C@@H](O)[C@@H]12)[C@H](C)O | > 375 µM | > 375 µM | > 375 µM | > 375 µM | > 375 µM | > 375 µM | > 375 µM | > 375 µM | > 375 µM |  |  | > 375 µM |  |  |  |  |  |  |  | 
5 | COC(=O)C1C(O)C(C)C(O)OC1C(C)C(O)C(C)/C=C\C=C(/C)C(=O)Nc1c(C)c(OC(C)=O)c2c(c1O)C(=O)C(C)=C1OCOC(/C(C)=C/C(C)=O)=C12 (stereo not drawn) | 23.5 µM | 51.1 µM | 26.5 µM | 24.8 µM | 28.2 µM | 26 µM | 4.96 µM | 27.7 µM | 31.1 µM |  |  | 24.8 µM |  |  |  |  |  |  |  | 
6 | Cn1c(=O)c2nc(NCCO)cnc2n(C)c1=O | > 100 µM | > 100 µM | > 100 µM | > 100 µM | > 100 µM | > 100 µM | > 100 µM | > 100 µM | > 100 µM |  |  | 81.5 µM |  |  |  |  |  |  |  | 
7 | O=C(c1ccccc1)c1nn(-c2ccccc2)c2nc3nc(-c4ccccc4)cc(=O)n3nc12 | > 100 µM | 66.7 µM | 82.1 µM | 34.6 µM | 50.8 µM | 53 µM | > 100 µM | > 100 µM | 89.2 µM | 21.2 µM | 21.4 µM | > 100 µM | 38 µM | 28.3 µM | 0.0477 µM | 26 µM | 19.9 µM | 37.8 µM | 32.6 µM | 29.4 µM
8 | Cc1cc2c(C(C)C)c(O)c(O)c(C=Nc3ccccc3)c2c(O)c1-c1c(C)cc2c(C(C)C)c(O)c(O)c(C=Nc3ccccc3)c2c1O | > 100 µM | > 100 µM | > 100 µM | > 100 µM | > 100 µM | > 100 µM | > 100 µM |  | > 100 µM |  |  | > 100 µM |  |  |  |  |  |  |  | 
